Test results published in patent publication US20110144027A1, “PHARMACEUTICAL COMPOSITIONS FOR PROMOTING WOUND HEALING” (priority 2006, published 2011).
Read-outs that look alike come from different tables or passages of the source.

Assays:
[1] = Toxicokinetics after topical application on full-thickness wounds in minipigs; format: in vivo, Gottingen SPF minipigs; settings: for AUC(0-t) / Cmax / half-life / Tmax: Gottingen SPF, minipig, plasma, topical or ocular, 2000 ug/day, topical 2000 μg/day (500 μg/g Gel), Day 6; for AUC(0-t): read-out: AUC24 h (Mean ± CV); for Cmax: read-out: Cmax (Mean ± CV); for half-life: read-out: T1/2 (Mean ± CV) (converted); for Tmax: read-out: Tmax (Mean ± CV)
Text: (§1) Testing of concentrations of 2-[2-(4-Chlorophenyl)ethoxy]adenosine in blood plasma: 2-[2-(4-Chlorophenyl)ethoxy]adenosine concentrations in blood plasma taken from a patient may be quantitated. A non-limiting example of an assay to quantitate 2-[2-(4-Chlorophenyl)ethoxy]adenosine in blood plasma is an HPLC/MS/MS bioanalytical assay. The assay used an organic precipitation of protein accomplished with addition of acetonitrile to plasma followed by a thorough mixing and centrifugation to separate the denatured protein and supernatant. Aliquots of the supernatant were injected onto a HPLC system equipped with a triple quadrapole mass spectrometer which provided highly specific and sensitive detection of the molecular ion of interest. Concentrations of 2-[2-(4-Chlorophenyl)ethoxy]adenosine were determined from peak area ratios of 2-[2-(4-Chlorophenyl)ethoxy]adenosine and the internal standard using weighted linear regression curves (1/×). The assay was highly robust and reproducible within the validated range of 1.0 to 100 ng/mL.
The objective of this study was to assess the local and the systemic toxicity of the 2-[2-(4-chlorophenyl)ethoxy]adenosine formulation of the instant invention. The testing occurred in Gottingen SPF minipigs. 20 μg/g, 100 μg/g and 500 μg/g concentration of the 2-[2-(4-chlorophenyl)ethoxy]adenosine formulation were created using the methods described in Example I. The 20 μg/g and 100 μg/g formulation are described below. The components of the 500 μg/g formulation and the placebo control were as described in Example 1.
The total dosage of 2-[2-(4-chlorophenyl)ethoxy]adenosine per minipig ranged from 80 μg to 2000 μg/day. The formulation was administered topically once per day in 1 mL (1 g) doses at 20 μg/g, 100 μg/g and 500 μg/g concentration per wound per administration on surgically established full-thickness wounds until wound closure. Each minipig had multiple (4) wounds that received treatment.
A total of 40 Gottingen SPF minipigs (20 males and 20 females) were included in the study. The animals were allocated into four groups each of 4 males and 4 females. In addition, 4 animals (2 of each sex per group), were included as recovery animals for the control/placebo group (Group 1) and the high-dose group (Group 4).
From Day 1 through Day 13, 2-[2-(4-chlorophenyl)ethoxy]adenosine formulation at either 20 μg/g, 100 μg/g or 500 μg/g concentration was applied topically on surgically established circular full-thickness wounds (wound diameter 20 mm; 4 wounds per animal) on a daily basis in a dose volume of approximately 1 mL per wound until wound closure. The dose levels and animal numbers are provided Table 20.
Toxicokinetic sampling occurred on Day 6 at the following time points: pre-treatment, and 0.5, 1, 3, 5, 7, 9, 12 and 24 hours post-treatment. […] Non-compartmental pharmacokinetic analysis of plasma 2-[2-(4-chlorophenyl)ethoxy]adenosine concentration profiles in Groups 2, 3, and 4 (low-, mid- and high-dose) animals yielded pertinent pharmacokinetic parameters, which are summarized by treatment and gender in Table 20.

[2] = Systemic absorption in patients (plasma HPLC/MS/MS assay); format: in vivo, human; settings: any topical dose concentration (5, 50, 500 μg/g), initial, day 16 and day 28, LLOQ 1.0 ng/mL
Text: as §1
2-[2-(4-Chlorophenyl)ethoxy]adenosine was administered to patients with chronic, neuropathic, diabetic foot ulcers (DFU). […]

wound [3] = settings: healthy BALB/C mice; cited from earlier work
wound [4] = settings: rats; cited from earlier work

| systemic absorption (blood plasma, HPLC/MS/MS assay) [2] | Structure (SMILES) | AUC(0-t) ([1]; Female minipigs) [ng·h/mL] | Cmax ([1]; Female minipigs) [ng/mL] | half-life ([1]; Female minipigs) [h] | Tmax ([1]; Female minipigs) [h] | AUC(0-t) ([1]; Male minipigs) [ng·h/mL] | Cmax ([1]; Male minipigs) [ng/mL] | half-life ([1]; Male minipigs) [h] | Tmax ([1]; Male minipigs) [h] | absorption into the systemic circulation from topical administration in open wounds ([1]; minipigs, wound healing phase, 80-2000 μg/day) | wound healing (wound [3]) | rate of wound closure (wound [4]) |
| --- | --- | --- | --- | --- | --- | --- | --- | --- | --- | --- | --- | --- |
| No systemic absorption | Nc1nc(OCCc2ccc(Cl)cc2)nc2c1ncn2[C@@H]1O[C@H](CO)[C@@H](O)[C@H]1O [2-[2-(4-chlorophenyl)ethoxy]adenosine] | 6.65 | 0.45 | 28.4 | 7.5 | 7.25 | 0.46 | 122 | 7.8 | minimal | promote wound healing | – |
| – | CCNC(=O)[C@H]1O[C@@H](n2cnc3c(N)nc(NCCc4ccc(CCC(=O)O)cc4)nc32)[C@H](O)[C@@H]1O [CGS 21680, 2-[p-(carboxyethyl)phenylethylamino]-5′-N-ethylcarboxamidoadenosine] | – | – | – | – | – | – | – | – | – | – | increase the rate of wound closure |
